The source of these data is paper PMC3042617, “Identification of Two Novel HLA-A*0201-Restricted CTL Epitopes Derived from MAGE-A4” (Clinical and Developmental Immunology, 2011).

Assay [1] concerns LB1751-MEL cells. The assay is described as follows: Cytotoxicity (LDH release) of peptide-stimulated human PBMCs against LB1751-MEL. In kind it is cell-based. The note with it: PBMCs of healthy HLA-A*0201 donors, E/T 50/1, 25/1, 12.5/1, 4 h. As for the experimental part:
PBMCs were isolated from the buffy coat of heparinized whole blood samples of healthy HLA-A*0201 donors by density gradient centrifugation on the Ficoll-Paque PREMIUM (GE Healthcare Bio-Sciences AB, Uppsala, Sweden). The effector lymphocytes and dendritic cells (DCs) were prepared by our published method. All donors signed written, informed consent to provide whole blood samples used in the study. Approval of the study was obtained from the relevant ethical committees and was in accordance with the Declaration of Helsinki.
(§1) Three to five days after the final stimulation, the cytotoxic activity of the effector cells was evaluated by a lactate dehydrogenase release assay using Cytotox 96 Non-Radioactive Cytotoxicity Assay kit (Promega, USA). In brief, 1×10^4 target cells (LB1751-MEL, MCF-7 or MCF-7A4) in 50 μL RPMI 1640 containing 5% fetal calf serum (FCS) was placed in the wells of a 96-well round-bottom plate, then 50 μL of various concentrations of effector cells was added at different effector to target (E/T) ratios (50/1, 25/1, and 12.5/1). After 4 h incubation at 37°C, the supernatant was collected to assay lactate dehydrogenase (LDH) release by OD490 measurement according to the manufacturer's instructions. Experiments were performed in triplicates and the percentage of lysis was calculated as % Lysis = [(experimental LDH release − effector spontaneous LDH release − target spontaneous LDH release)/(target maximum LDH release − target spontaneous LDH release)] × 100.
Figure 2 Induction of peptide-specific CTLs from human PBMCs. PBMCs from healthy HLA-A*0201 donors were first stimulated with peptide-pulsed autologous DCs and then restimulated with peptide-pulsed autologous PBMCs. After three to five days of the final stimulation, the stimulated PBMCs were used as effector cells to detect their cytotoxic activity against tumor cells at the indicated E/T ratios in a cytotoxicity assay. The irrelevant peptide HBcAg18–27 was taken as negative control. Each sample was measured in three replicates and the experiment was repeated three times. […] (c) P1- and P3-stimulated PBMCs mediated lysis of MCF-7A4 cells. (d) P1- and P3-stimulated PBMCs mediated lysis of MCF-7 cells.
On the technique in general: Release of lactate dehydrogenase indicates damage to the cell membrane.

The test system of assay [2] is peptide/HLA-A*0201 complex. In words: Peptide/HLA-A*0201 complex stability on T2 cells. In kind it is binding, human. The note with it: for % MFI increase at indicated time point (h): 0 / DC50 (half-time of the peptide/HLA-A*0201 complex): T2 cells, 37°C; for % MFI increase at indicated time point (h): 0: 100 μM peptide overnight, 100 ng/mL human β2m, Brefeldin A 10 μg/mL 1 h, then 0 h at 37°C, anti-HLA-A2 mAb staining; for DC50 (half-time of the peptide/HLA-A*0201 complex): 100 μM peptide, time points 0-8 h; for % MFI increase at indicated time point (h): 2 / % MFI increase at indicated time point (h): 4 / % MFI increase at indicated time point (h): 6 / % MFI increase at indicated time point (h): 8: as at 0 h; for % MFI increase at indicated time point (h): 2: then 2 h at 37°C after Brefeldin A; for % MFI increase at indicated time point (h): 4: then 4 h at 37°C after Brefeldin A; for % MFI increase at indicated time point (h): 6: then 6 h at 37°C after Brefeldin A; for % MFI increase at indicated time point (h): 8: then 8 h at 37°C after Brefeldin A. The protocol: As previously described, T2 cells (10^6/mL) were incubated overnight with 100 μM of each peptide in serum-free RPMI 1640 medium supplemented with 100 ng/mL human β2m at 37°C. Then, they were washed to remove free peptides and incubated with 10 μg/mL of Brefeldin A (Sigma-Aldrich, USA) for 1 h to block newly synthesized HLA-A*0201 molecules to be expressed on cell surface, washed and incubated at 37°C for 0, 2, 4, 6, or 8 h. Subsequently, the cells were stained with the anti-HLA-A2 mAb to evaluate the expression of HLA-A*0201 molecules.

The target in assay [3] is HLA-A*0201 molecule (Homo sapiens, UniProt P04439, D140Y/D185E/D98H/E176V/E277Q/G131W/G231S/I119V/I121R/I166T/I218V/L300P/L318F/N151K/N90K/P208A/P217A/Q86G/Q94H/R138H/R169H/T345S). In words: T2-cell-peptide binding test (affinity of peptide for HLA-A*0201). The note with it: various peptide concentrations, 3 μg/mL human β2m, serum-free RPMI 1640, 37°C, 16 h, flow cytometry, three replicates, repeated three times. The protocol:
The affinity of peptides for HLA-A*0201 was measured as described previously. Briefly, T2 cells were incubated with various concentrations of each peptide and 3 μg/mL human β2m in serum-free RPMI 1640 medium at 37°C for 16 h. Then, the cells were washed and stained with antiHLA-A2 mAb and FITC-labeled goat anti-mouse IgG. The expression of HLA-A*0201 on T2 cells was determined with FACS Calibur flow cytometer (Becton Dickinson, USA). For each peptide concentration, the percent mean fluorescence index (% MFI) increase of HLA-A*0201 molecule was calculated as follows: % MFI increase = [(MFI with the given peptide − MFI without peptide)/(MFI without peptide)] × 100.
Figure 1 Binding affinity of peptides for HLA-A*0201 molecule. T2 cells were incubated with indicated concentrations of the peptides in serum-free RPMI 1640 medium supplied with 3 μg/mL human β2m at 37°C for 16 h. And then the cells were stained with anti-HLA-A2 mAb and FITC-labeled goat antimouse IgG. The expression of HLA-A*0201 on T2 cells was determined with FACS Calibur flow cytometer. The peptides HBcAg18–27 and OVA257–264 were taken as positive control and negative control, respectively. Each sample was measured in three replicates and the experiment was repeated three times.
Background: Flow cytometry measures light scatter and fluorescence of single cells or particles in a stream.

Assay [4] relates to MCF-7A4 cells. The assay is described as follows: Cytotoxicity (LDH release) of peptide-stimulated human PBMCs against MCF-7A4. In kind it is cell-based. Conditions: 4 h. The source says:
To establish a cell line expressing both HLA-A*0201 and MAGE-A4, MCF-7 cells were transfected with plasmid pCI-MAGEA4 using Lipofectamine 2000 (Invitrogen, USA) and then selected with G418. The expression of MAGE-A4 in the established cell line (designated MCF-7A4) was confirmed by reverse transcription-PCR and western blotting.
PBMCs were isolated from the buffy coat of heparinized whole blood samples of healthy HLA-A*0201 donors by density gradient centrifugation on the Ficoll-Paque PREMIUM (GE Healthcare Bio-Sciences AB, Uppsala, Sweden). The effector lymphocytes and dendritic cells (DCs) were prepared by our published method. All donors signed written, informed consent to provide whole blood samples used in the study. […]
Three to five days after the final stimulation, the cytotoxic activity of the effector cells was evaluated by a lactate dehydrogenase release assay using Cytotox 96 Non-Radioactive Cytotoxicity Assay kit (Promega, USA). […] Experiments were performed in triplicates and the percentage of lysis was calculated as % Lysis = [(experimental LDH release − effector spontaneous LDH release − target spontaneous LDH release)/(target maximum LDH release − target spontaneous LDH release)] × 100.
Figure 2 Induction of peptide-specific CTLs from human PBMCs. […] Each sample was measured in three replicates and the experiment was repeated three times. […]

The test system of assay [5] is LB1751-MEL cells. In words: In vivo induction of peptide-specific CTLs in HLA-A*0201/K^b transgenic mice. The note with it: 100 μg peptide in IFA once, splenocytes after 10 days, restimulated in vitro 5 days with peptide and rmIL-2; LDH release. As for the experimental part:
as §1
HLA-A*0201/K^b mice were immunized with 100 μg of various peptides prepared in IFA or IFA emulsion without peptide as a control. After 10 days, mice were sacrificed and splenocytes were cultured for 5 days with 10 units/mL recombinant murine interleukin-2 (rmIL-2) and […]. And then, effector cells were counted and tested for cytotoxic activity in a cytotoxicity assay.
Figure 3 In vivo induction of peptide-specific CTLs. […]

Turning to ALLEEEEGV [Peptide P2], the “Lysis of LB1751-MEL target cells by peptide-stimulated PBMCs” value (shortened to “Lysis … by peptide-stimulated PBMCs”) in assay [1] was “could not lyse”. In assay [2], the “% MFI increase at indicated time point (h): 0” value (“% MFI increase … 0” for short) is reported as 170.07%, the “DC50 (half-time of the peptide/HLA-A*0201 complex)” value was 2 h, the “% MFI increase at indicated time point (h): 2” value (“% MFI increase … 2” for short) is reported as 84.13% and the “% MFI increase at indicated time point (h): 4” value (“% MFI increase … 4” for short) is reported as 57.09%. Besides, in assay [2], the “% MFI increase at indicated time point (h): 6” value (“% MFI increase … 6” for short) came out at 42.34% and the “% MFI increase at indicated time point (h): 8” value (“% MFI increase … 8” for short) amounted to 31.19%. In addition, the “Binding affinity for HLA-A*0201 molecule (increase of HLA-A*0201 expression on T2 cells)” value in assay [3] is “lower affinity”.
Turning to ALPTTISFT [Peptide P4], in assay [1], the “Lysis … by peptide-stimulated PBMCs” value is “could not lyse”. Further, in assay [2], the “% MFI increase … 0” value is reported as 98.80%, the “DC50 (half-time of the peptide/HLA-A*0201 complex)” value was found to be 2 h, the “% MFI increase … 2” value came to 48.73% and the “% MFI increase … 4” value is listed as 30.79%. Moreover, in assay [2], the “% MFI increase … 6” value worked out at 21.01% and the “% MFI increase … 8” value was 18.52%. Also, the “Binding affinity for HLA-A*0201 molecule (increase of HLA-A*0201 expression on T2 cells)” value in assay [3] is reported as “lowest affinity”.
As to FLWGPRALA [Peptide P3], in assay [4], the “Lysis of MCF-7A4 cells (HLA-A*0201 and MAGE-A4 expressing) by peptide-primed effector cells” value is “could also lyse”. In assay [1], the “Lysis … by peptide-stimulated PBMCs” value is “could significantly lyse”. Besides, in assay [2], the “% MFI increase … 0” value stood at 285.66%, the “DC50 (half-time of the peptide/HLA-A*0201 complex)” value is 8 h, the “% MFI increase … 2” value is reported as 230.85% and the “% MFI increase … 4” value is given as 192.71%. In addition, in assay [2], the “% MFI increase … 6” value was found to be 170.05% and the “% MFI increase … 8” value amounted to 150.56%. Besides, the “Binding affinity for HLA-A*0201 molecule (increase of HLA-A*0201 expression on T2 cells)” value in assay [3] is given as “highest affinity”. The “Lysis of LB1751-MEL target cells by splenocytes of peptide-inoculated mice” value in assay [5] is recorded as “could lyse”.
As for KVLEHVVRV [Peptide P1], in assay [4], the “Lysis of MCF-7A4 cells (HLA-A*0201 and MAGE-A4 expressing) by peptide-primed effector cells” value is recorded as “could also lyse”. Besides, the “Lysis … by peptide-stimulated PBMCs” value in assay [1] was “could significantly lyse”. Also, in assay [2], the “% MFI increase … 0” value is reported as 126.16%, the “DC50 (half-time of the peptide/HLA-A*0201 complex)” value was 4 to 6 h, the “% MFI increase … 2” value is on record as 95.74% and the “% MFI increase … 4” value amounted to 74.98%. In assay [2], the “% MFI increase … 6” value is reported as 60.29% and the “% MFI increase … 8” value was 49.07%. Moreover, in assay [3], the “Binding affinity for HLA-A*0201 molecule (increase of HLA-A*0201 expression on T2 cells)” value was “lowest affinity”. Moreover, the “Lysis of LB1751-MEL target cells by splenocytes of peptide-inoculated mice” value in assay [5] is reported as “could lyse”.
Turning to “OVA257–264: control peptide, negative control in HLA-A*0201 binding test (ESIINFEK; UniProt P01012 257-264, looked up, fragment) [reference compound]”, the “Binding affinity for HLA-A*0201 molecule (increase of HLA-A*0201 expression on T2 cells)” value in assay [3] is “did not increase”.
